For data set [1] the following is noted: cited from earlier work; for effects on C-reactive protein, interleukin-6, or tumor necrosis alpha: 4 grams per day; for reduction of triglyceride levels: overweight, hyperlipidemic men.
For data set [2] the following is noted: cited from earlier work; for better absorbed than EE forms: TG forms.
A short description of data set [3]: Clinical study: fasting insulin and glucose. The data set is classed as in vivo, human. The following applies: 6 weeks. The method, then:
Standard chemistry tests were carried at all visits (screening, enrollment, and final study visit after an overnight fast by Quest Laboratories, Cambridge, Mass.): blood urea nitrogen, creatinine, calculated glomerular filtration rate, sodium, potassium, chloride, carbon dioxide, calcium, total protein, albumin, globulin, total bilirubin, alkaline phosphatase, liver transaminases AST and ALT, and glucose. A complete blood count was also performed at all visits and included: hemoglobin, hematocrit, red blood cell count, platelet count, white blood cell count and a white blood cell count differential. Additional tests included: prothrombin time, and measurement of thyroid function including T3, T4 and T3 uptake. All subjects entering the study were required to have: liver function tests (i.e., transaminases) of less than 3 times the upper limits of normal; bilirubin and alkaline phosphatase values in the normal range; serum creatinine levels of less than 2.5 mg/dl; hemoglobin levels over 11 g/dl; a normal prothrombin time; a fasting blood glucose below 200 mg/dl; and, a blood pressure below 170/110 mmHg. All subjects who qualified for the study and met all the screening and laboratory entry criteria were scheduled for an enrollment visit within one month of screening.
(§1) At visit 2, subjects were again asked to fast for 12 hours, and information about subject characteristics including all vital signs, recent illness or hospitalization, medication and supplement use, and diet information was again obtained. […] At one week and three weeks after beginning the supplements, all study subjects were contacted by telephone and asked about any adverse effects and about their compliance, and the information on their calendars with regard to capsule use and fish intake. They were also asked about whether they had experienced any fishy aftertaste or odor, and if so, how frequent were these episodes, and how unpleasant were they? The entire process as listed above was repeated after study subjects were on the study capsules for 6 weeks at the time of the final visit. Compliance and adverse events were assessed by telephone at weeks 1 and 3 by telephone and at week 6 by questionnaire and capsule count. Over 42 days, subjects were expected to have consumed a total of 252 capsules. Compliance was calculated as a percentage of consumed capsule count/expected capsule count based on the number of days the subject was in the study. All subjects were asked to stay on their capsules until they come in for their final visit. Compliance in all participants who completed the study was based on capsule count was in excess of 85%, mean 96%.
The following laboratory measurements were carried out on an automated analyzer (Roche Diagnostics, Indianapolis, Ind.) on samples obtained in the fasting state at the randomization visit, and the final visits using frozen aliquots of serum stored at −80 degrees Celsius: 1) total cholesterol; 2) triglycerides; 3) direct high density lipoprotein [“HDL”] cholesterol; 4) direct low density lipoprotein [“LDL”] cholesterol; 5) direct small dense LDL cholesterol; 6) apolipoprotein [“apo”] B; 7) apoA-I; 8) lipoprotein (a); 9) fibrinogen; 10) high sensitivity C reactive protein [“hs-CRP”]; 11) lipoprotein associated phospholipase A2 [“Lp-PLA2”]; and, 12) insulin as previously described. See, McNamara, J. R. and Schaefer, E. J., Clin. Chim. Acta, 166:1-8 (1987); Okada, M. et al., J. Lab. Clin. Med., 132:195-201 (1998); Hirano, T. et al., J. Lipid Res., 44:2193-2201 (2003); Ai, M. et al., Am. J. Cardiol., 101:315-318 (2008); Ingelsson, E. et al., JAMA, 298:776-785 (2007); Jenner, J. L. et al., Circulation, 87:1135-1141 (1993); Schaefer, E. J. et al., Am. J. Cardiol., 95:1025-1032 (2005); McNamara, J. R. et al., Atherosclerosis, 154:229-236 (2001).

Data set [4] in a line: Clinical study in healthy subjects: body weight, BMI, blood pressure, pulse. The following applies: 6 weeks. It is filed as in vivo, human. The method, then:
The goal of this study was to test the safety and efficacy of an EPA-enriched oil (as described in Examples 1-3; E.I. duPont de Nemours & Co., Inc. Applied Biosciences, Wilmington, Del.), to corroborate the safety of a novel oil rich in EPA in humans prior to this product being placed on the market as a dietary supplement. This oil was tested at doses of 600 mg and 1800 mg of EPA/day as compared […] parallel arm design in approximately 120 healthy adults studied in both the fasting and post-prandial state. Safety was monitored by assessing for adverse reactions, measuring vital signs and a variety of laboratory tests including a complete metabolic profile, thyroid function tests, complete blood count, and prothrombin time.
The objective was to carry out a double blinded, randomized, placebo-controlled trial in 120 healthy subjects between 20-70 years of age over a 6 week period comparing the effects of an EPA-enriched oil provided at daily […] Specific parameters investigated included changes in body weight, heart rate, blood pressure, complete blood count, comprehensive metabolic profile, lipid and lipoprotein measures in the fasted and fed state, fatty acid profiles, and inflammation markers.
At all visits the following information was recorded: weight in pounds and kilograms, height in centimeters [“cm”] and inches, waist circumference in cm and inches, resting heart rate, systolic blood pressure, diastolic blood pressure, and a brief dietary assessment to assure continued lack of high fish intake and/or flax seed or fish oil dietary supplements. Blood pressure and pulse measurements were done 3 times on each visit after the subjects had been sitting quietly for 5 minutes.
At the time of the enrollment visit all subjects were randomly allocated into a protocol where they were required to take two capsules three times daily which contained a either: 1) olive oil placebo; 2) 600 mg/day of EPA/day; 3) 1800 mg of EPA/day; and, […]). The EPA oils are notable for their low levels of saturated fatty acids, particularly with regard to the DHA oil. Specifically, the composition of the DHA oil was as follows (g fatty acid per 100 g of oil): 14.1 g myristic acid (14:0), 10.8 g palmitic acid (16:0), 2 g palmitoleic acid (16.1), 7.4 g margaric acid (17:0), 8.4 g oleic acid (18:1), 0.1 g EPA (20:5n3), 0.9 g DPA (22:5n6) and 37.9 g DHA (22:6n3).
as §1
Statistical analyses compared mean absolute and percentage changes from baseline and 6 weeks in the active groups versus the placebo group. Analysis of variance, as well as paired t-test analysis were performed with SYSTAT software. […]

Turning to `CCC=CCC=CCC=CCC=CCC=CC/C=C\CCC(=O)O` [DHA, cis-4,7, 10, 13, 16, 19-docosahexaenoic acid, reference compound], the “effects on C-reactive protein, interleukin-6, or tumor necrosis alpha” value in data set [1] was “no significant effects”. In addition, in data set [1] (4 grams/day), the HDL2 cholesterol entry was “significantly increased”, the “forearm blood flow in response to acetylcholine infusion relative to placebo” value was “significantly increased” and the “reduction of triglyceride levels” value is reported as 20%. In addition, the “better absorbed than EE forms” value in data set [2] is given as 36%. Moreover, in data set [3] (DHA 600 mg (n = 28), Fast), the “Insulin, 6-Week Change (%)” value is “+26.7 ± 79.8%” and the Insulin, Final came out at 8.4 ± 4.1 µIU/mL.

Regarding `CCC=CCC=CCC=CCC=CC/C=C\CCCC(=O)O` [EPA, cis-5,8, 11, 14, 17-eicosapentaenoic acid], in data set [4] (EPA 600 mg (n = 27)), the “BMI, 6-Week Change (%)” value is given as “+0.2 ± 2.3%”; the “BMI, Final” value turned out to be 27.4 ± 3.1 kg/m^2; the “Diastolic BP, Final” value came out at 80.0 ± 7.9 mm; the “Pulse, 6-Week Change (%)” value was “+2.1 ± 13.6%”. Besides, in data set [4] (EPA 600 mg (n = 27)), the “Pulse, Final” value is 74.7 ± 12.0 beats/min; the “Systolic BP, 6-Week Change (%)” value was “+3.0 ± 10.4%”; the “Systolic BP, Final” value was found to be 121.1 ± 12.2 mm Hg; the “Weight, 6-Week Change (%)” value is listed as “+0.2 ± 2.1%”. Moreover, the “Weight, Final” value in data set [4] (EPA 600 mg (n = 27)) was found to be 80.4 ± 10.9 kg. Also, in data set [4] (EPA 1800 mg (n = 29)), the “BMI, 6-Week Change (%)” value is “+1.1 ± 5.1%”; the “BMI, Final” value is listed as 27.9 ± 5. kg/m2; the “Diastolic BP, 6-Week Change (%)” value was “+1.4 ± 9.1%”; the “Diastolic BP, Final” value is 77.4 ± 9.0 mm. Further, in data set [4] (EPA 1800 mg (n = 29)), the “Pulse, 6-Week Change (%)” value is recorded as “+2.7 ± 8.6%”; the “Pulse, Final” value is recorded as 70.9 ± 8.5 beats/min; the “Systolic BP, 6-Week Change (%)” value is “+1.0 ± 7.4%”; the “Systolic BP, Final” value came out at 119.9 ± 13.4 mm Hg. For the same molecule, in data set [4] (EPA 1800 mg (n = 29)), the “Weight, 6-Week Change (%)” value is “+1.3 ± 4.6%” and the “Weight, Final” value stood at 81.6 ± 19.2 kg. Besides, the “effects on C-reactive protein, interleukin-6, or tumor necrosis alpha” value in data set [1] is reported as “no significant effects”. In addition, the “reduction of triglyceride levels” value in data set [1] (4 grams/day) is on record as 18%. In addition, the “better absorbed than EE forms” value in data set [2] is listed as 48%. In addition, the “EPA incorporation into plasma lipids” value in data set [2] (administered as an EE) was “considerably smaller”. Moreover, in data set [3] (EPA 600 mg (n = 27)), the “Glucose, 6-Week Change (%)” value was “+1.3 ± 14.0%”; the “Glucose, Final” value worked out at 92.1 ± 11.0 mg/dL; the “Insulin, 6-Week Change (%)” value is “+17.4 ± 70.6%”. In data set [3] (EPA 600 mg (n = 27), Fast), the “Insulin, 6-Week Change (%)” value was “+17.4 ± 70.6%” and the Insulin, Final is 10.2 ± 7.9 µIU/mL.

Source of the values: patent publication US20110178105A1, “CLINICAL BENEFITS OF EICOSAPENTAENOIC ACID IN HUMANS” (E.I. DU PONT DE NEMOURS AND COMPANY, priority 2010, published 2011).
